Measured values published in patent publication US12052991B2, “Substituted pyridinyloxybenzenes and salts thereof and use thereof as herbicidal agents” (Bayer Aktiengesellschaft, priority 2018, dated 2024).

Columns and labels:
Assay type in all cases: in vivo
Veronica persica (VERPE) [1] = experiment: Herbicidal post-emergence action (Table B12); conditions: visual rating about 3 weeks after treatment, 100% = plants have died, 0% = like control plants
Method: (§1) Seeds of mono- and dicotyledonous weed plants were placed in plastic pots in sandy loam soil (doubly sown with in each case one species of mono- or dicotyledonous weed plants per pot), covered with soil and cultivated in a greenhouse under controlled growth conditions. 2 to 3 weeks after sowing, the test plants were treated at the one-leaf stage. The compounds of the invention, formulated in the form of wettable powders (WP) or as emulsion concentrates (EC), were applied onto the green parts of the plants as aqueous suspension or emulsion with addition of 0.5% additive at a water application rate of 600 liters per hectare (converted). After the test plants had been kept in the greenhouse under optimum growth conditions for about 3 weeks, the activity of the preparations was rated visually in comparison to untreated controls. For example, 100% activity=the plants have died, 0% activity=like control plants. Tables B1 to B12 below show the effects of selected compounds of the general formula (I) according to Table 1 on various harmful plants and an application rate corresponding to 1280 or 320 g/ha, which were obtained by the experimental procedure mentioned above.

[2] = tested on: Alopecurus myosuroides (ALOMY); experiment: Herbicidal pre-emergence action, test C (Table C9); conditions: dosage 1280 g/ha; visual scoring after about 3 weeks; 100% = plants have died, 0% = like control plants
Source text: (§2) Seeds of mono- and dicotyledonous weed plants were placed in plastic pots in sandy loam soil (doubly sown with one species each of mono- or dicotyledonous weed plants per pot) and covered with soil. The compounds of the invention, formulated in the form of wettable powders (WP) or as emulsion concentrates (EC), were then applied onto the surface of the covering soil as aqueous suspension or emulsion with addition of 0.5% additive at a water application rate of 600 liters per hectare (converted). After the treatment, the pots were placed in a greenhouse and kept under good growth conditions for the test plants. After about 3 weeks, the effect of the preparations was scored visually in comparison with untreated controls as percentages. For example, 100% activity=the plants have died, 0% activity=like control plants. Tables C1 to C12 below show the effects of selected compounds of the general formula (I) according to Table 1 on various harmful plants and an application rate corresponding to 1280 or 320 g/ha, which were obtained by the experimental procedure mentioned above.

[3] = tested on: Amaranthus retroflexus (AMARE); experiment: Herbicidal post-emergence action (Table B6); conditions: visual rating about 3 weeks after treatment, 100% = plants have died, 0% = like control plants
Method: as §1

[4] = tested on: harmful plants ABUTH, AMARE, ECHCG, LOLRI, MATIN, POAAN, SETVI, STEME, ALOMY, DIGSA, KCHSC and VERPE; experiment: Herbicidal post-emergence action, summary of Tables B1-B12; conditions: application rate of 1280 or 320 g of active ingredient per hectare; summary in words
Method: as §1, with “controls.” for “controls. For example, 100% activity=the plants have died, 0% activity=like control plants. Tables B1 to B12 below show the effects of selected compounds of the general formula (I) according to Table 1 on various harmful plants and an application rate corresponding to 1280 or 320 g/ha, which were obtained by the experimental procedure mentioned above.”
(§3) For example, 100% activity=the plants have died, 0% activity=like control plants.
Tables B1 to B12 below show the effects of selected compounds of the general formula (I) according to Table 1 on various harmful plants and an application rate corresponding to 1280 or 320 g/ha, which were obtained by the experimental procedure mentioned above.
As the results of Tables B1-B12 show, compounds no.

Stellaria media (STEME) [5] = experiment: Herbicidal post-emergence action (Table B8); conditions: visual rating about 3 weeks after treatment, 100% = plants have died, 0% = like control plants
Method: as §1

Setaria viridis (SETVI) = experiment: Herbicidal pre-emergence action, test C (Table C4); conditions: dosage 1280 g/ha; visual scoring after about 3 weeks; 100% = plants have died, 0% = like control plants
Source text: as §2

[6] = tested on: harmful plants ABUTH, AMARE, ECHCG, LOLRI, MATIN, POAAN, SETVI, STEME, ALOMY, DIGSA, KCHSC and VERPE; experiment: Herbicidal pre-emergence action (test C), summary of Tables C1-C12; conditions: application rate of 1280 or 320 g of active ingredient per hectare; summary in words
Source text: as §2, with “percentages.” for “percentages. For example, 100% activity=the plants have died, 0% activity=like control plants. Tables C1 to C12 below show the effects of selected compounds of the general formula (I) according to Table 1 on various harmful plants and an application rate corresponding to 1280 or 320 g/ha, which were obtained by the experimental procedure mentioned above.”
as §3
Tables C1 to C12 below show the effects of selected compounds of the general formula (I) according to Table 1 on various harmful plants and an application rate corresponding to 1280 or 320 g/ha, which were obtained by the experimental procedure mentioned above.
As the results of Tables C1-C12 show, compounds no.

Poa annua (POAAN) [7] = experiment: Herbicidal post-emergence action (Table B3); conditions: rated visually after about 3 weeks, 100% = plants have died, 0% = like control plants
Method: as §1

[8] = tested on: Abutilon theophrasti (ABUTH); experiment: Herbicidal post-emergence action (Table B5); conditions: rated visually after about 3 weeks, 100% = plants have died, 0% = like control plants
Method: as §1

Stellaria media (STEME) [9] = experiment: Herbicidal pre-emergence action, test C (Table C8); conditions: visual scoring after about 3 weeks, 100% = plants have died, 0% = like control plants
Source text: as §2

[10] = tested on: Digitaria sanguinalis (DIGSA); experiment: Herbicidal pre-emergence action, test C (Table C10); conditions: dosage 1280 g/ha; visual scoring after about 3 weeks; 100% = plants have died, 0% = like control plants
Source text: as §2

[11] = tested on: Digitaria sanguinalis (DIGSA); experiment: Herbicidal post-emergence action (Table B10); conditions: dosage 1280 g/ha; visual rating about 3 weeks after treatment; 100% = plants have died, 0% = like control plants
Method: as §1

Poa annua (POAAN) [12] = experiment: Herbicidal pre-emergence action, test C (Table C3); conditions: visual scoring after about 3 weeks, 100% = plants have died, 0% = like control plants
Source text: as §2

Veronica persica (VERPE) [13] = experiment: Herbicidal pre-emergence action, test C (Table C12); conditions: visual scoring vs untreated controls
Source text: as §2

[14] = tested on: Amaranthus retroflexus (AMARE); experiment: Herbicidal pre-emergence action, test C (Table C6); conditions: visual scoring after about 3 weeks, 100% = plants have died, 0% = like control plants
Source text: as §2

[15] = tested on: Echinochloa crus-galli (ECHCG); experiment: Herbicidal post-emergence action (Table B1); conditions: rated visually after about 3 weeks, 100% = plants have died, 0% = like control plants
Method: as §1

Bassia scoparia (KCHSC) = experiment: Herbicidal post-emergence action (Table B11); conditions: visual rating about 3 weeks after treatment, 100% = plants have died, 0% = like control plants
Method: as §1

[16] = tested on: Alopecurus myosuroides (ALOMY); experiment: Herbicidal post-emergence action (Table B9); conditions: rated visually after about 3 weeks, 100% = plants have died, 0% = like control plants
Method: as §1

[17] = tested on: Abutilon theophrasti (ABUTH); experiment: Herbicidal pre-emergence action, test C (Table C5); conditions: visual scoring after about 3 weeks, 100% = plants have died, 0% = like control plants
Source text: as §2

[18] = tested on: Matricaria inodora (MATIN); experiment: Herbicidal pre-emergence action, test C (Table C7); conditions: dosage 1280 g/ha; visual scoring after about 3 weeks; 100% = plants have died, 0% = like control plants
Source text: as §2

Structure (SMILES)	Post-emergence action against Veronica persica (VERPE) (Veronica persica (VERPE) [1]; dosage 320 g/ha)	Post-emergence action against Veronica persica (VERPE) (Veronica persica (VERPE) [1]; dosage 1280 g/ha)	Pre-emergence action against Alopecurus myosuroides (ALOMY) [2]	Post-emergence action against Amaranthus retroflexus (AMARE) ([3]; dosage 1280 g/ha)	herbicidal activity against the harmful plants of Tables B1-B12 in post-emergence treatment [4]	Post-emergence action against Stellaria media (STEME) (Stellaria media (STEME) [5]; dosage 320 g/ha)	Post-emergence action against Stellaria media (STEME) (Stellaria media (STEME) [5]; dosage 1280 g/ha)	Pre-emergence action against Setaria viridis (SETVI) (Setaria viridis (SETVI))	herbicidal activity against the harmful plants of Tables C1-C12 in pre-emergence treatment [6]	Post-emergence action against Poa annua (POAAN) (Poa annua (POAAN) [7]; 320 g/ha)	Post-emergence action against Poa annua (POAAN) (Poa annua (POAAN) [7]; 1280 g/ha)	Post-emergence action against Abutilon theophrasti (ABUTH) ([8]; 1280 g/ha)	Pre-emergence action against Stellaria media (STEME) (Stellaria media (STEME) [9]; dosage 320 g/ha)	Pre-emergence action against Stellaria media (STEME) (Stellaria media (STEME) [9]; dosage 1280 g/ha)	Pre-emergence action against Digitaria sanguinalis (DIGSA) [10]	Post-emergence action against Digitaria sanguinalis (DIGSA) [11]	Pre-emergence action against Poa annua (POAAN) (Poa annua (POAAN) [12]; dosage 1280 g/ha)	Pre-emergence action against Veronica persica (VERPE) (Veronica persica (VERPE) [13]; dosage 1280 g/ha)	Pre-emergence action against Amaranthus retroflexus (AMARE) ([14]; dosage 1280 g/ha)	Pre-emergence action against Matricaria inodora (MATIN) [18]	also measured
FC(F)c1cc(-c2c(Oc3ccc(Cl)cn3)cccc2C2CC2)on1 [Example 1-77]	100%	100%	100%	100%	very good herbicidal activity	100%	100%	100%	very good herbicidal activity	100%	100%	90%	100%	100%	100%	100%	100%	100%	100%	–	Pre-emergence action against Veronica persica (VERPE) (Veronica persica (VERPE) [13]; dosage 320 g/ha): 90%; Pre-emergence action against Amaranthus retroflexus (AMARE) ([14]; dosage 320 g/ha): 90%
Cc1ccc(-c2cc(C(F)F)no2)c(Oc2ccc(Cl)cn2)c1 [Example 1-26]	–	100%	90%	100%	very good herbicidal activity	–	100%	90%	very good herbicidal activity	100%	100%	100%	100%	100%	90%	90%	100%	90%	–	100%	Post-emergence action against Echinochloa crus-galli (ECHCG) ([15]; 320 g/ha): 100%; Post-emergence action against Echinochloa crus-galli (ECHCG) ([15]; 1280 g/ha): 100%; Post-emergence action against Bassia scoparia (KCHSC) (Bassia scoparia (KCHSC); dosage 320 g/ha): 90%; Post-emergence action against Bassia scoparia (KCHSC) (Bassia scoparia (KCHSC); dosage 1280 g/ha): 100%; Post-emergence action against Alopecurus myosuroides (ALOMY) ([16]; 320 g/ha): 100%; Post-emergence action against Alopecurus myosuroides (ALOMY) ([16]; 1280 g/ha): 100%; Pre-emergence action against Abutilon theophrasti (ABUTH) ([17]; dosage 1280 g/ha): 90%; Post-emergence action against Abutilon theophrasti (ABUTH) ([8]; 320 g/ha): 90%; Pre-emergence action against Poa annua (POAAN) (Poa annua (POAAN) [12]; dosage 320 g/ha): 90%
Cc1ccnc(-c2ccccc2Oc2ccc(Cl)cn2)c1 [Example 1-81]	100%	100%	90%	100%	very good herbicidal activity	–	100%	–	very good herbicidal activity	–	90%	90%	–	100%	100%	–	100%	100%	100%	90%	Pre-emergence action against Abutilon theophrasti (ABUTH) ([17]; dosage 320 g/ha): 100%; Pre-emergence action against Abutilon theophrasti (ABUTH) ([17]; dosage 1280 g/ha): 100%
CCc1ccc(Oc2cccc(CC)c2-c2cc(C(F)F)no2)nc1 [Example 1-60]	100%	100%	–	100%	very good herbicidal activity	100%	100%	100%	very good herbicidal activity	90%	100%	90%	100%	100%	100%	100%	100%	100%	100%	100%	Post-emergence action against Amaranthus retroflexus (AMARE) ([3]; dosage 320 g/ha): 100%; Post-emergence action against Bassia scoparia (KCHSC) (Bassia scoparia (KCHSC); dosage 1280 g/ha): 100%; Post-emergence action against Alopecurus myosuroides (ALOMY) ([16]; 320 g/ha): 100%; Post-emergence action against Alopecurus myosuroides (ALOMY) ([16]; 1280 g/ha): 100%
